Laboratory results: patent US7582424B2 (priority 2000, dated 2009)

Legend:
[1] = system: Ace-induced Isc response by T84 cell monolayers; test: cells; assay type: cell-based, human
[2] = system: ACE-stimulated Isc in 16HBE14o- cell monolayers; assay type: cell-based, human
polarized T84 cells = settings: cited from earlier work
T84 cell monolayers = assay type: cell-based, human
cGMP = assay type: cell-based
cAMP = assay type: cell-based
chloride secretion = settings: cited from earlier work

CC(=O)OCOC(=O)CN(CC(=O)OCOC(C)=O)c1ccccc1OCCOc1ccccc1N(CC(=O)OCOC(C)=O)CC(=O)OCOC(C)=O [BAPTA, 1,2-bis(2-aminophenoxy)ethane-N,N,N′,N′-tetraacetic acid (BAPTA)-AM]
effect on Ace-induced Isc [1]: near ablation

O=S(=O)(O)c1cc(N=C=S)ccc1C=Cc1ccc(N=C=S)cc1S(=O)(=O)O.[Na] [DIDS, 4,4′-diisothiocyanostilbene-2,2′-disulfonic acid, sodium]
inhibition at 500 µM ([1]; Homo sapiens, T84, read-out: inhibition of the Ace-induced Isc response): 50%
decrease in ACE-stimulated Isc [2]: 40%
inhibition of forskolin-induced Isc response (polarized T84 cells): 40%
inhibition of thapsigargin-induced Isc response (polarized T84 cells): 100%

CCCCNc1cc(C(=O)O)cc(S(N)(=O)=O)c1Oc1ccccc1 [bumetanide]
effect on Ace action when added after Ace [1]: reverses
inhibition at 100 µM ([1]; Homo sapiens, T84, read-out: inhibition of the action of Ace (Isc)): ~60%
effect by itself on Isc or PD (T84 cell monolayers): no effect

C[N+](C)(C)CCOC(N)=O [carbachol]
effect on cellular cGMP (cGMP): no significant effect
effect of carbachol pretreatment on thapsigargin-induced chloride secretion (Isc response) (T84 cell monolayers): blocks
peak Isc, agent alone (T84 cell monolayers): 9.8±1.1 μAmp/cm^2
return of Isc nearly to baseline (T84 cell monolayers): ≤ 10 min
time of peak Isc, agent alone (T84 cell monolayers): 4 min
effect on cellular cAMP (cAMP): no significant effect

Clc1ccccc1C(c1ccccc1)(c1ccccc1)n1ccnc1 [clotrimazole]
reduction in Ace-stimulated Isc [1]: 92%
inhibition of carbachol-dependent secretion (chloride secretion): 84%

O=C1CN(/N=C/c2ccc(-c3ccc([N+](=O)[O-])cc3)o2)C(O)=N1 [dantrolene]
inhibition at 50 µM ([1]; Homo sapiens, T84, read-out: inhibition of Ace-induced Isc response): ~70%

C=C[C@@]1(C)CC(=O)[C@]2(O)[C@@]3(C)[C@@H](O)CCC(C)(C)[C@@H]3[C@H](O)[C@H](OC(C)=O)[C@@]2(C)O1 [forskolin]
effect on cellular cGMP (cGMP): no effect
mean peak Isc, forskolin followed by carbachol (T84 cell monolayers): 69.3±2.4 μAmps/cm^2
predicted additive effect, forskolin and carbachol, mean peak Isc (T84 cell monolayers): 49.0±2.9

O=c1c(-c2ccc(O)cc2)coc2cc(O)cc(O)c12 [genistein]
effect on the Isc response to Ace [1]: no effect

C[C@@H]1O[C@@H](O[C@H]2C[C@@H](O)[C@]3(CO)[C@H]4[C@H](O)C[C@]5(C)[C@@H](C6=CC(=O)OC6)CC[C@]5(O)[C@@H]4CC[C@]3(O)C2)[C@H](O)[C@H](O)[C@H]1O [ouabain]
effect on Ace-induced Isc [1]: inhibits and reverses

C/C=C(/C)C(=O)O[C@H]1C(C)=C2[C@H]([C@@H]1OC(=O)CCCCCCC)[C@@](C)(OC(C)=O)C[C@H](OC(=O)CCC)[C@@]1(O)[C@H]2OC(=O)[C@@]1(C)O [thapsigargin]
mean peak Isc, agent alone (T84 cell monolayers): 10.2±4.3

COc1ccc(CCN(C)CCCC(C#N)(c2ccc(OC)c(OC)c2)C(C)C)cc1OC (centres unmarked) [verapamil]
effect on Ace-induced Isc response [1]: no significant effect

NPPB
decrease in ACE-stimulated Isc [2]: ~80%

ω-conotoxin
effect on Ace-induced Isc response [1]: no significant effect
